Article PMC12583827, “Harnessing microbial-derived metabolites in the urinary tract to prevent infection induced catheter encrustation” (Nature Communications, 2025)

Experiments:
[1] = tested on: P. mirabilis urease operon (ureABC, ureEDF); experiment: Real-time quantitative PCR of urease operon; assay type: cell-based, Proteus mirabilis
Experimental: P. mirabilis was cultured for ~18 h in LB broth and then sub cultured until it reached mid-log growth phase (OD600 0.2-0.5). Cultures were spun down to pellet at 10,000 rcf for 10 minutes and resuspended in saline to a final OD600 of 1.0. Cultures were then diluted 1:10 into dampening metabolites buffered 1:10 in potassium phosphate buffer pH7 and supplemented with 500 mM urea. P. mirabilis in potassium phosphate buffer without urea served as a negative control. Cultures were incubated in potassium phosphate buffer with and without dampening metabolites at 37 °C with shaking for 15 minutes. RNA isolation, cDNA synthesis and RT qPCR were performed as described previously. […] A RNA integrity analysis using agarose gel electrophoresis on extracted RNA was performed for all samples to confirm no change in transcript stability (Supplementary Fig 16A). The data were analyzed according to the Relative Quantification (RQ) method by Pfaffl et al. 2001[54] (See Supplementary Information).
168 Real-time quantitative PCR analysis. The data were analyzed according to the Relative
169 Quantification (RQ) method by Pfaffl et al 2001 (56) in which P. mirabilis potassium phosphate
170 buffer without urea was considered as the ‘Control’ and P. mirabilis in potassium phosphate
171 buffer supplemented with 500mM urea with and without candidate dampening compounds were
172 the ‘Sample.’ The full equation is below.
(E )ΔCPtarget (control−sample)
174 Relative Quantification Ratio = target Equation 2
(Ereference)ΔCPreference (control−sample)
176 In this equation, E refers to the primer efficiency of the target gene (Etarget, urease operon
177 subunits) or the reference gene (Ereference, rpoA), and CP refers to the Cycle Point, or the cycle
178 number at which the signal exceeds the threshold. […]
183 for whole genome sequencing on the Illumina NextSeq2000 platform. Read trimming, and run
184 analytics were performed using Trimmomatic v0.39.0 (62). The processed reads were assembled
185 using spades v3.15.5 (63) wrapped in Unicycler v0.5.0 (64, 65). Read mapping was done using […]

[2] = tested on: P. mirabilis; experiment: Growth and viability of P. mirabilis incubated in dampening metabolites; assay type: cell-based, Proteus mirabilis
Experimental: 345 Supplementary Figure 5. Growth and viability of P. mirabilis incubated in dampening
346 metabolites. (A-B) P. mirabilis was cultured for ~18 hours in LB broth, then diluted 1:100 into
347 fresh LB broth with (A) the highest concentration of each dampening metabolites that was tested
348 for urease-dampening activity or (B) serial dilutions of D-imidazole lactate. Bacterial
349 suspensions were incubated at 37 °C with double-orbital shaking, and OD600 was measured
350 every 15 minutes for 18 hours. Representative growth curves (A-B) show means and standard
351 deviations from three technical replicates. (C-E) Viability of P. mirabilis incubated in serial
352 dilutions of D-imidazole lactate. Overnight cultures were subcultured to mid log phase, washed
353 in potassium phosphate buffer, and diluted 1:10 in either (C,D) potassium phosphate buffer or
354 human urine (E) with and without D-imidazole lactate. Samples were incubated at 37°C with
(§1) (1 picture or pasted object on this page, not shown here)

[3] = tested on: P. stuartii BE2467; experiment: Growth and viability of P. stuartii in dampening metabolites; assay type: cell-based, Providencia stuartii
Experimental: 478 Supplementary Figure 20. Growth of M. morganii, P. stuartii and UTI MRSA incubated in
479 dampening metabolites. M. morganii TA43 (A,D,G), P. stuartii BE2467(B,E,H), UTI MRSA
480 (C,F,I) were incubated in urease dampening metabolites to assess impact on growth. Bacteria
481 were cultured for ~18 hours in LB (Mm and Ps) or BHI (MRSA) broth, then diluted 1:100 into
482 fresh broth with (A-C) the highest concentrations of dampening metabolites assessed for urease
483 inhibition or (D-F) serial dilutions of D-imidazole lactate. Bacterial suspensions were incubated
484 at 37 °C with double-orbital shaking, and OD600 was measured every 15 minutes for 18 hours.
485 Error bars represent mean ± standard deviation (SD) from at least 3 technical replicates, and
486 graphs are representative of 3 independent biologic experiments. (G-I) Viability of incubated in
487 Mm, Ps or MRSA incubated in serial dilutions of D-imidazole lactate. Overnight cultures were
as §1
488 subcultured to mid log phase, washed in potassium phosphate buffer, and diluted 1:10 in
489 potassium phosphate buffer with and without D-imidazole lactate. Samples (n=3) were incubated
490 at 37°C with aeration for one hour then plated and enumerated for colony forming units (CFU).

[4] = Buffering capacity assay (NaOH titration, phenol red); assay type: physicochemical; details: high concentrations of metabolite in potassium phosphate buffer with phenol red
Experimental: Known concentrations of sodium hydroxide were added to each well of a 96 well plate in combination with candidate dampening metabolite of interest buffered 1:10 in potassium phosphate buffer pH7. 0.01% phenol red was added to each well, and absorbance (OD562) was measured in a Synergy H1 plate reader (BioTek).

Compound | relative expression of urease mRNA transcripts ([1]; 15-minute incubation, 500 mM urea) | pool of rpoA mRNA transcripts ([1]; 15 minutes incubation) | Growth of P. mirabilis in LB broth ([2]; LB broth, 18 hours, OD600) | antimicrobial activity against P. mirabilis ([2]; incubation in human urine) | antimicrobial activity against P. mirabilis ([2]; incubation in potassium phosphate) | growth of P. stuartii ([3]; LB broth) | antimicrobial activity against P. stuartii BE2467 ([3]; incubation in potassium phosphate, CFU) | buffering capacity: absorbance (OD562) across NaOH concentrations [4]
O.O=C(O)[C@H](O)Cc1cnc[nH]1 [D-imidazole lactate, D-imidazolelactic acid hydrate] | decreased | did not affect | perturbed | less-pronounced activity | robust antimicrobial activity | perturbed growth | robust antimicrobial activity | 
Cl.O=C(O)Cc1cnc[nH]1 [4-imidazole acetate, 2-(1H-Imidazol-5-yl)acetic acid hydrochloride] |  |  |  |  |  |  |  | consistent reduction in absorbance compared to the control
